Experimental data: patent US10258036B2, “Extract of Euodia suaveolens Scheff, repellent compositions and use thereof” (CHARABOT, priority 2009, dated 2019)

Experiments:
[1] = system: Aedes aegypti; test: Repellent efficacy test on hairless mouse coated with test product, exposed to female mosquitoes; assay type: in vivo; details: concentration of 3% or even less of synthetic evodone
Protocol: In this respect, the invention is illustrated by the following efficacy tests, carried out in the laboratory, where the formulas are not degraded through the effects of abrasion, exudation, sunlight, temperature or even swimming in the sea. […] The tests are carried out on female Aedes aegypti mosquitoes aged 6 to 10 days having undergone a prior 24-hour period of fasting (no blood meal) in order to increase their aggressiveness. […] 30 minutes after product application, the mouse is introduced into a cage containing approximately 200 female mosquitoes (prior removal of the males using a food gradient). The test lasts 5 minutes and during this period the number of mosquitoes having landed on the mouse (“landing” effect: number of mosquitoes that land on the treated area and leave without biting) and the number of effective bites, are recorded. The test is stopped after 5 effective bites (“stop” in the Tables below). […] Based on the outcome of the first repetition, repetitions are performed at time intervals of 30 minutes in order to provide a more accurate limit for the duration of protection. During and between the runs, the mice are maintained in a “tropical” like atmosphere under controlled conditions at 27+/−1° C. and 70+/−5% relative humidity. The cages are changed upon each unit test and placed 3 meters apart. […]

[2] = system: Aedes aegypti; details: DEET at a dose of 23.8 percent, laboratory; cited from earlier work
[3] = in vivo; cited from earlier work
[4] = system: mosquitoes; details: cited from earlier work

Cc1coc2c1C(=O)C[C@@H](C)C2 [evodone, (6S)3-6 dimethyl 6,7 dihydro 5H benzofuran-4-one]
repellent efficacy compared with DEET [1]: as effective as a concentration of 30% of DEET

CCN(CC)C(=O)c1cccc(C)c1 [DEET, N,N-diethyl-3-methylbenzamide]
protection period [2]: more than 5 hours | share of a dose absorbed through the skin [3]: 30%

CCC(C)OC(=O)N1CCCCC1CCO (centres unmarked) [icaridin, 1-methylpropylester]
concentration with efficacy comparable to that of 30% DEET [4]: 19.2%

p menthane 3.8 diol [citriodiol]
maximum persistence of protection [4]: ≤ 6 h
